Source: paper PMC5216056 (Nature Communications, 2017)
Read-outs that look alike come from different tables or passages of the source.

Legend:
[1] = biological target: T1, hCB2R (Homo sapiens, UniProt P34972); assay: cell-based; type: cell-based
[2] = biological target: T1, hCB2R; assay: biochemical; type: biochemical; design: expressed in transfected cells; host or cells: Flp-In-293 (Invitrogen #R750-07), pcDNA5/FRT
[3] = for Pct acceptor / Pct donor / Pct membrane: PAMPA; for Pct membrane: compound found in membranes; for Pampa Peff: membrane permeation coefficient
[4] = biological target: T2, human NAPE-PLD (Homo sapiens, UniProt Q6IQ20); assay: NAPE-PLD inhibition; type: biochemical; conditions: 10 µM
T2 construct: Full length human cDNA NAPE-PLD was obtained from Natsuo Ueda; expressed in transfected cells; host or cells: HEK293T (transient), membrane fraction
Description: Full length human cDNA NAPE-PLD was obtained from Natsuo Ueda[58] and cloned into mammalian expression vector pcDNA3.1, containing a C-terminal Flag-tag and genes for ampicillin and neomycin resistance. All plasmids were grown in XL-10 Z-competent cells and prepped (Maxi Prep, Qiagen). Sequence analysis for the confirmation of the sequences was performed at the Leiden Genome Technology Centre.
HEK293T cells (source: Dutch Cancer Institute) were cultured at 37 °C and 7% CO2 in DMEM with glutamax, penicillin (100 μg ml^−1), streptomycin (100 μg ml^−1) and 10% New Born Calf Serum iron supplemented (Hyclone SH30072.03). Cells were passaged twice a week to appropriate confluence. Twenty-four hours before transfection 10^7 cells were seeded on a 15 cm dish. Two hours before transfection, the medium was refreshed. Transfection is performed with PEI in a ratio of 3:1 with human NAPE-PLD or Mock pcDNA3.1Neo, 20 μg per dish. Medium is refreshed after 24 h and cells are harvested after 72 h. Cell suspensions are centrifuged at 1,000g for 10 min, supernatant removed and pellets frozen at −80 °C until further use.
Cell pellets are re-suspended in lysis buffer 1: 20 mM Hepes, 2 mM DTT, 0.25 M sucrose, 1 mM MgCl2, 2.5 U ml^−1 benzonase and incubated 30 min on ice. The cytosolic fraction (supernatant) is separated from the membranes by ultra-centrifugation (32,000 rpm for 30 min 100,000g). The pellet is resuspended in buffer 2: 20 mM Hepes, 2 mM DTT (membrane fraction). All samples are stored at −80 °C. Enzyme concentrations are determined using a Bradford assay.
The membrane protein fraction from transient overexpression of NAPE-PLD in HEK293T cells was diluted to 0.4 mg ml^−1 in assay buffer: 50 mM Tris-HCl (pH 7.5), 0.02% Triton X-100, 150 mM NaCl (ref. [60]). […] Relevant concentrations of compounds are prepared in DMSO. The assay is performed in a dark Greiner 96-well plate, end volume 100 μl. The compound or DMSO is incubated with membrane protein lysate (final concentration 0.04 mg ml^−1) for 30 min at 37 °C. A sample without membrane protein lysate is incorporated for background subtraction. Then, substrate is added (final concentration 1 μM) and the measurement is started immediately on a TECAN infinite M1000 pro at 37 °C (excitation 485 nm, emission 535 nm), scanning every 2 min for 1 h.

[5] = biological target: T3, GR (h) (Homo sapiens, UniProt P04150); assay: CEREP panel; type: binding; conditions: 10 µM
T3 construct: CEREP (contract assay)
T3 sequence (P04150 1-777): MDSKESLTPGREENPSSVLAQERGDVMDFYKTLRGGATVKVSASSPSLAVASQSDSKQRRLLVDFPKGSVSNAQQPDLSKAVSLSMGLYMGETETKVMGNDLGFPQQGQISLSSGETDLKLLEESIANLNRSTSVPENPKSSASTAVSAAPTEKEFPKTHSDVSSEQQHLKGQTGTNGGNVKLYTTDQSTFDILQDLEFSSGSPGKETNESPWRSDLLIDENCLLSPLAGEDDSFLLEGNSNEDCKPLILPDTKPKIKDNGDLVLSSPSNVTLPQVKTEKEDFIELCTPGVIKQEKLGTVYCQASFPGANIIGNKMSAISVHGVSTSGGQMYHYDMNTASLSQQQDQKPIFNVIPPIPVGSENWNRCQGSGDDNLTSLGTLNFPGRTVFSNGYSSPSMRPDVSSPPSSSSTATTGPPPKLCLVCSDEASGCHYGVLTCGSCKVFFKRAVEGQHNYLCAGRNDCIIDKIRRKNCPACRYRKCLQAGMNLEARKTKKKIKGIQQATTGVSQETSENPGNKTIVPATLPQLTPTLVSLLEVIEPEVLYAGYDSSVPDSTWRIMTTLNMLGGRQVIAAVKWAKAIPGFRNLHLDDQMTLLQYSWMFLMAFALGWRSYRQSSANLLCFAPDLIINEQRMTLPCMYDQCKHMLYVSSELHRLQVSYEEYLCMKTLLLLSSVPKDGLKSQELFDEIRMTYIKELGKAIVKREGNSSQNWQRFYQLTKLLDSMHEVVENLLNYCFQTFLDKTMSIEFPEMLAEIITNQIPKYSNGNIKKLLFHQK

[6] = biological target: mCB2R (Mus musculus, UniProt P47936); assay: biochemical; type: biochemical; design: from tissue; host or cells: spleen of male C57BL/6J mice; conditions: for pEC50 ± SEM cAMP mCB2R: mouse spleen
Chain of mCB2R (P47936 whole entry): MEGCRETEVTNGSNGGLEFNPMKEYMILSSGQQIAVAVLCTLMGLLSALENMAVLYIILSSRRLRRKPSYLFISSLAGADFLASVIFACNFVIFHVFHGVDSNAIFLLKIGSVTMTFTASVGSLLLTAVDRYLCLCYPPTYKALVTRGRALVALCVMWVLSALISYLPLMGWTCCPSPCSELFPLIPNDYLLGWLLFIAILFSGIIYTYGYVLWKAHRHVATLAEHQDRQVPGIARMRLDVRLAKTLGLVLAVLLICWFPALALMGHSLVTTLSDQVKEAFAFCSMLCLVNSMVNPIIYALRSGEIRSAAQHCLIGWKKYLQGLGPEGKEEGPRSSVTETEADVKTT

T1 sequence (P34972 whole entry): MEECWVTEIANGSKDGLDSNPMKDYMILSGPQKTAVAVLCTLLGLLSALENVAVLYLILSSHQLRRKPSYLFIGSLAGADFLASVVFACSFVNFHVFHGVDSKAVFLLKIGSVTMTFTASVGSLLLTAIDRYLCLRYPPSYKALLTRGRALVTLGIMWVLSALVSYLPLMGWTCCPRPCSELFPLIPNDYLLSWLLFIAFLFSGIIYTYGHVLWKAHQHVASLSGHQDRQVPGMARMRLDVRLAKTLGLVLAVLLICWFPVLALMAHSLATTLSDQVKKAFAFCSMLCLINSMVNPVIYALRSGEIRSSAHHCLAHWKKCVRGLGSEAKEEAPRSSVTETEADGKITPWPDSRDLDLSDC
T2 sequence (Q6IQ20 whole entry): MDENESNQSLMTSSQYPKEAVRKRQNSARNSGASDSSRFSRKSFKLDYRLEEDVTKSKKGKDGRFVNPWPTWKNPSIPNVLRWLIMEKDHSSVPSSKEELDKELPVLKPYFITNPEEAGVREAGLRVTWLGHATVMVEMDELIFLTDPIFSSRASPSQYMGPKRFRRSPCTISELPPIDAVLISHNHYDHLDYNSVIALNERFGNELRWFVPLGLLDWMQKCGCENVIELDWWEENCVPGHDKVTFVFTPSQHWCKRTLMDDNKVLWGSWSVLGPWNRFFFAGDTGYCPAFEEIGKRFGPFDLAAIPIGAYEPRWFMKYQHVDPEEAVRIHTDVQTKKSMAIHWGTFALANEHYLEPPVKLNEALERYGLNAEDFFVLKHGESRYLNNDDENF

CCCCCCC(C)(C)c1cc(OC)c(C2=C[C@H]3CC[C@]2(CO)C3(C)C)c(OC)c1 [HU910]
pEC50 ± SEM β-AR recruitment hCB2R ([1]; antagonists in presence of EC80 of CP55940): 7.75 ± 0.03
Emax ± SEM β-AR recruitment hCB2R ([1]; normalized to 10 µM CP55940, negative = inhibition of EC80 of CP55940): 48 ± 6%
pEC50 ± SEM GTPγS hCB2R [2]: 7.27 ± 0.12
Emax ± SEM GTPγS hCB2R ([2]; normalized to 10 µM CP55940, negative = inverse agonism): 61 ± 13%
Pct acceptor [3]: 1%
Pct donor [3]: 42%
Pct membrane [3]: 57%
Pampa Peff [3]: 0.45 cm/s*10-6
NAPE-PLD % inhibition at 10 µM ± SD [4]: 8 ± 13%
% inhibition GR (h) [5]: 4%
pEC50 ± SEM cAMP mCB2R [6]: 8.98 ± 0.38
Emax cAMP mCB2R ([6]; normalized to 10 µM CP55940): 67%

CCCC(C)(C)c1ccc2c(c1)OC(C)(C)[C@@H]1CC=C(C)C[C@@H]21 [JWH133]
CB2R Selectivity β-AR recruitment [1]: 275 fold
Emax ± SEM β-AR recruitment hCB2R [1]: 62 ± 11
pEC50 ± SEM β-AR recruitment hCB2R [1]: 7.81 ± 0.22
Emax ± SEM GTPγS hCB2R [2]: 61 ± 15
hCB2R Selectivity GTPγS [2]: 0.4
pEC50 ± SEM GTPγS hCB2R [2]: 6.96 ± 0.35
Pct acceptor [3]: 2.3%
Pct donor [3]: 36.1%
Pct membrane [3]: 61.7%
Pampa Peff [3]: 1.86 cm/s*10-6
NAPE-PLD % inhibition at 10 µM ± SD [4]: 3 ± 4%
% inhibition GR (h) [5]: 7%
Emax cAMP mCB2R [6]: 95
pEC50 ± SEM cAMP mCB2R [6]: 7.75 ± 0.33
